We go through six molecules from patent US6713056B1, “Combined preparation for the treatment of neoplasic diseases or of infectious diseases” (I.D.M. Immuno-Designed Molecules, priority 1998, dated 2004).

Structures are written as SMILES.

For test [1], the system named is human carcinoma solid tumors. Put plainly: Nude mice with human carcinoma solid tumors: cytotoxic drugs, then activated human macrophages, then the same drugs. It is filed as in vivo. The settings on record: after macrophage injection; drugs used alone or in combination. An excerpt:
2) Nude mice inoculated with human carcinoma solid tumors are initially treated with cytotoxic drugs (Adriamycin, Etretinate, Taxotere), used alone or in combination.

Test [2] has as its system 16R-OV1/DDP human ovary cancer cell line. Put plainly: Survival of cisplatin-resistant ovary cancer cells grown with MAK for 24 hours, then with cisplatin (FIG. 3). In kind it is cell-based. The settings on record: cisplatin alone at maximal dose 10^-3 M. How it is done: The percentage of tumor cell survival is measured according to the method described in “Feasibility of drug screening with panels of human tumor cell lines using a microculture tetrazolium assay” (Alley M. C., Scudiero D. A., Monks A., et al.; Cancer Res., 1988, 48: 489-501), and is plotted against the dose of cisplatin (abscissa) in the test tube (molar concentration).
FIG. 3 represents the percentage of cellular survival as a function of cisplatin concentration (M).
The curve with hollow circles corresponds to the use of cisplatin alone.
The plain curve corresponds to the use of MAK alone.
The curve with black squares corresponds to the use of the combination of MAK followed by cisplatin.
The curve with hollow triangles corresponds to the theoretical additive curve of a treatment with MAK alone and a treatment with cisplatin alone.
16R-OV1/DDP human ovary cancer cell line was rendered resistant to cisplatinum by continuous exposure to increasing concentrations of cisplatin (Fajac A., et al. Cisplatin induced apoptosis and p.53 gene status in a cisplatin resistant human ovarian carcinoma cell line. Int. J. Cancer 68, 67-74, 1996). The cells are grown at 37° C., 5% CO2 in RPMI 1640 medium in the presence of activated human macrophages (MAK) during 24 hours and then with cisplatin at increasing concentrations. […]

The next test relates to solid carcinoma. Briefly: Mice bearing solid carcinoma: apoptosis-inducing drug plus monocyte derived cells. The settings on record: drug intraperitoneally, 24 h later 0.1 million monocyte derived cells in tumor periphery; seen only after combined treatment. It is filed as in vivo, C57B16 mice. How it is done: 7) C57B16 mice bearing solid carcinoma are injected intraperitonealy with a drug inducing apoptosis (1 mg mitomycin C or 0.1 mg sodium butyrate). After 24 h, mice are injected with 0.1 million monocyte derived cells in tumor periphery. […] In another protocol, carcinoma cells are treated in vitro with 0.01 mM sodium butyrate, and then submitted to phagocytosis by murine monocyte derived cells.

Turning to `COc1cccc2c1C(=O)c1c(O)c3c(c(O)c1C2=O)C[C@@](O)(C(=O)CO)C[C@@H]3O[C@H]1C[C@H](N)[C@H](O)[C@H](C)O1` [Adriamycin], in test [1], the “effect of second treatment with the same cytotoxic drugs (subcutaneous tumor size)” value (from here on “effect of second treatment”) is listed as “further antitumoral effect”.

`N.N.[Cl][Pt][Cl]` [Cisplatin, cisplatin]: the inhibition of survival in test [2] amounted to 35%.

As for `CCOC(=O)/C=C(C)/C=C/C=C(C)/C=C/c1c(C)cc(OC)c(C)c1C` [Etretinate], in test [1], the “effect of second treatment” value is on record as “further antitumoral effect”.

Consider `CC(=O)O[C@@]12CO[C@@H]1C[C@H](O)[C@@]1(C)C(=O)[C@H](O)C3=C(C)[C@@H](OC(=O)[C@H](O)[C@@H](NC(=O)OC(C)(C)C)c4ccccc4)C[C@@](O)([C@@H](OC(=O)c4ccccc4)[C@H]21)C3(C)C` [Taxotere], for which, in test [1], the “effect of second treatment” value is recorded as “further antitumoral effect”.

For the molecule `CO[C@@]12[C@H](COC(N)=O)C3=C(C(=O)C(C)=C(N)C3=O)N1C[C@@H]1N[C@@H]12` [mitomycin C], the “tumor outcome after combined treatment” value in the test with solid carcinoma was “Tumor regression and protection against further tumor challenge”.

For the molecule `CCCC(=O)[O-].[Na+]` [sodium butyrate], the “tumor outcome after combined treatment” value in the test with solid carcinoma was “Tumor regression and protection against further tumor challenge”.
